How the values were obtained:
[1] = molecular target: Interleukin-1 receptor-associated kinase 4 (Homo sapiens) (UniProt Q9NWZ3); assay: Inhibition of human IRAK4 (14 to 460 residues) assessed as residual activity at 500 nM in presence of 33P-ATP by filter binding assay relative to control
[2] = molecular target: Protein-tyrosine kinase 6 (Homo sapiens) (UniProt Q13882); assay: Inhibition of human BRK (1 to 451 residues) assessed as residual activity at 500 nM in presence of 33P-ATP by filter binding assay relative to control
[3] = molecular target: RAC-beta serine/threonine-protein kinase (Homo sapiens) (UniProt P31751); assay: Inhibition of human PKBbeta (120 to 481 residues) assessed as residual activity at 500 nM in presence of 33P-ATP by filter binding assay relative to control
RAC-beta serine/threonine-protein kinase (Homo sapiens), sequence (P31751 whole entry, the tested form may be a part): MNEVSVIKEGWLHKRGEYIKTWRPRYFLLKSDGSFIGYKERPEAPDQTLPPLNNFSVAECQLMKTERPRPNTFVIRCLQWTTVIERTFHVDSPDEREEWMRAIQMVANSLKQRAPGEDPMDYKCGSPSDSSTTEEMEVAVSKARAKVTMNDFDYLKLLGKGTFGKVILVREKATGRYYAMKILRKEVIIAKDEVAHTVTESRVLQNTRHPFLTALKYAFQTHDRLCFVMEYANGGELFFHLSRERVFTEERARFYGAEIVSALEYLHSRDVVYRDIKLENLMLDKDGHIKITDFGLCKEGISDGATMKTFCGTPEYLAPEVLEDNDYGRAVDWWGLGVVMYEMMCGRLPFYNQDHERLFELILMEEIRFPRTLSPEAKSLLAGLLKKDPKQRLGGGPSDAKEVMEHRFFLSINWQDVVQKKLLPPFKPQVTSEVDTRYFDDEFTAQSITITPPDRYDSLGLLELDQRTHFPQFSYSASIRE

[4] = molecular target: Serine/threonine-protein kinase PAK 6 (Homo sapiens) (UniProt Q9NQU5); assay: Inhibition of human PAK6 (2 to 681 residues) assessed as residual activity at 500 nM in presence of 33P-ATP by scintillation counting method relative to control
Serine/threonine-protein kinase PAK 6 (Homo sapiens), sequence (Q9NQU5 whole entry, looked up, the tested form may be a part): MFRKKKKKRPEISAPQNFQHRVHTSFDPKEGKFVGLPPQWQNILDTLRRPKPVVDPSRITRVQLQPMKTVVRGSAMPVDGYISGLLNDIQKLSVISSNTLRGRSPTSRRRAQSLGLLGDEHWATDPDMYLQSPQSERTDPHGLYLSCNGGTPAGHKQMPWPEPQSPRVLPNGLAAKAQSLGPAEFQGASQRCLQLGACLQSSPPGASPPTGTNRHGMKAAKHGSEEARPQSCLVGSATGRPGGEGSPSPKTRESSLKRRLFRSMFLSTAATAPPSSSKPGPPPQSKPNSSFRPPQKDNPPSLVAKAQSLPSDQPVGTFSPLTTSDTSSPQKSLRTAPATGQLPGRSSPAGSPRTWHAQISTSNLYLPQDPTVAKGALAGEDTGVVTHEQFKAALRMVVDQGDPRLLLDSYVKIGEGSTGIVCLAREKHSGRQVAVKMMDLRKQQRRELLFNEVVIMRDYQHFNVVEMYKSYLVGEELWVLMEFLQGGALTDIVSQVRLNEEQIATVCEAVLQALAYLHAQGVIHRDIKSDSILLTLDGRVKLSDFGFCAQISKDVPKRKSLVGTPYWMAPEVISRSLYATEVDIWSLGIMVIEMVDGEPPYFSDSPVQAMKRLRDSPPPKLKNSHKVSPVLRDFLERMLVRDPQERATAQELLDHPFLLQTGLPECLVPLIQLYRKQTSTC

[5] = molecular target: Dual specificity tyrosine-phosphorylation-regulated kinase 1A (Homo sapiens) (UniProt Q13627); assay: Inhibition of human DYRK1A (1 to 502 residues) assessed as residual activity at 500 nM in presence of 33P-ATP by filter binding assay relative to control
[6] = molecular target: Mitogen-activated protein kinase 15 (Homo sapiens) (UniProt Q8TD08); assay: Inhibition of human ERK8 (2 to 544 residues) assessed as residual activity at 500 nM in presence of 33P-ATP by filter binding assay relative to control
Mitogen-activated protein kinase 15 (Homo sapiens), sequence (Q8TD08 whole entry, the tested form may be a part): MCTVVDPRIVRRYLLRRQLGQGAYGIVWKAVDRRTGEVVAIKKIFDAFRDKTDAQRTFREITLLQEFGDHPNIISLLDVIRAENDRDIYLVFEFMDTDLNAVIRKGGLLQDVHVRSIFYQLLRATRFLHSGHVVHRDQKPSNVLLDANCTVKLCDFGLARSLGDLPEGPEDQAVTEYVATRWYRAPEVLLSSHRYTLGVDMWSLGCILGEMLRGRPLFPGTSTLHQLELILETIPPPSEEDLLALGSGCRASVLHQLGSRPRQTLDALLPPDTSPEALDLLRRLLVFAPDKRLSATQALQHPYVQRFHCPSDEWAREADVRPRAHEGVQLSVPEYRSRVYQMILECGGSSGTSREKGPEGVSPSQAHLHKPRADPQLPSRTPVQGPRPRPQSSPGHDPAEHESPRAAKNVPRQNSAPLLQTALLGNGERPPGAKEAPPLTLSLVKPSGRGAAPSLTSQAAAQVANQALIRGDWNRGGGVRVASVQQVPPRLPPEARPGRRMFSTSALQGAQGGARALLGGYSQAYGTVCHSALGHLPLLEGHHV

[7] = molecular target: Serine/threonine-protein kinase Chk2 (Homo sapiens) (UniProt O96017); assay: Inhibition of human CHK2 (5 to 543 residues) assessed as residual activity at 500 nM in presence of 33P-ATP by filter binding assay relative to control
[8] = molecular target: Proto-oncogene tyrosine-protein kinase LCK (Mus musculus) (UniProt P06240); assay: Inhibition of mouse LCK (2 to 509 residues) assessed as residual activity at 500 nM in presence of 33P-ATP by filter binding assay relative to control
Proto-oncogene tyrosine-protein kinase LCK (Mus musculus), sequence (P06240 2-509 limits assumed): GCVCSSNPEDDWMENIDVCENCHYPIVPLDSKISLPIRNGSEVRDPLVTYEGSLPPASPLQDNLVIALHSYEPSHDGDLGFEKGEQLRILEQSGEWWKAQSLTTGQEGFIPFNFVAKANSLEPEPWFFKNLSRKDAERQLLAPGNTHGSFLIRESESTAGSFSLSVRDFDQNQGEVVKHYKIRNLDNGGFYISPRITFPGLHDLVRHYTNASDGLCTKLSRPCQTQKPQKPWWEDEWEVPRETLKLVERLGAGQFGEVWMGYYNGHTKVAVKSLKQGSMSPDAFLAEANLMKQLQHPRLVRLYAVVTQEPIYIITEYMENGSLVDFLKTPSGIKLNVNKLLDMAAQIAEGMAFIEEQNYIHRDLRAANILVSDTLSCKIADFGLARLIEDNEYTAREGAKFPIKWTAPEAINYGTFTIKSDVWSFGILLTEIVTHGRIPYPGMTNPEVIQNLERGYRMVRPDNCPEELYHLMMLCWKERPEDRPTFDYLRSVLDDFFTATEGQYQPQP

[9] = molecular target: Dual specificity mitogen-activated protein kinase kinase 2 (Homo sapiens) (UniProt P36507); assay: Inhibition of human MKK2 (2 to 400 residues) assessed as residual activity at 500 nM in presence of 33P-ATP by filter binding assay relative to control
[10] = molecular target: Dual specificity protein kinase TTK (Homo sapiens) (UniProt P33981); assay: Inhibition of human TTK (1 to 857 residues) assessed as residual activity at 500 nM in presence of 33P-ATP by filter binding assay relative to control
[11] = Permeability in human Caco2 cells; format: ADME, cell-based; details: Caco-2, read-out: permeability
[12] = molecular target: Calcium/calmodulin-dependent protein kinase type 1 (Homo sapiens) (UniProt Q14012); assay: Inhibition of human CAMK1 (2 to 369 residues) assessed as residual activity at 500 nM in presence of 33P-ATP by filter binding assay relative to control
Calcium/calmodulin-dependent protein kinase type 1 (Homo sapiens), sequence (Q14012 whole entry, looked up, the tested form may be a part): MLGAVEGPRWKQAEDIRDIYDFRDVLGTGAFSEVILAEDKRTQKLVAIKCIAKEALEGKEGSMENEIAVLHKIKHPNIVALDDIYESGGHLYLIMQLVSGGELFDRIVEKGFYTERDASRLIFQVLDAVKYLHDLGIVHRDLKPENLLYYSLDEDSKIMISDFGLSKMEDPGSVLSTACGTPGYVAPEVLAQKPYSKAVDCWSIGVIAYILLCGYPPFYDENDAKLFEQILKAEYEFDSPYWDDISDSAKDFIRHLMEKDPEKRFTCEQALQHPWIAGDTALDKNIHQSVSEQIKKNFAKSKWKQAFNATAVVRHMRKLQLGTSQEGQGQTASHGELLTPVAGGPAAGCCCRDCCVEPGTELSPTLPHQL

[13] = molecular target: Protein kinase C gamma type (Homo sapiens) (UniProt P05129); assay: Inhibition of human PKCgamma (1 to 697 residues) assessed as residual activity at 500 nM in presence of 33P-ATP by filter binding assay relative to control
[14] = molecular target: Mitogen-activated protein kinase kinase kinase 11 (Homo sapiens) (UniProt Q16584); assay: Inhibition of human MLK3 (96 to 386 residues) assessed as residual activity at 500 nM in presence of 33P-ATP by filter binding assay relative to control
[15] = molecular target: Casein kinase I isoform gamma-2 (Homo sapiens) (UniProt P78368); assay: Inhibition of human CK1gamma2 (1 to 415 residues) assessed as residual activity at 500 nM in presence of 33P-ATP by filter binding assay relative to control
[16] = molecular target: Serine/threonine-protein kinase Chk1 (Homo sapiens) (UniProt O14757); assay: Inhibition of human CHK1 (1 to 476 residues) assessed as residual activity at 500 nM in presence of 33P-ATP by filter binding assay relative to control
Serine/threonine-protein kinase Chk1 (Homo sapiens), sequence (O14757 whole entry, the tested form may be a part): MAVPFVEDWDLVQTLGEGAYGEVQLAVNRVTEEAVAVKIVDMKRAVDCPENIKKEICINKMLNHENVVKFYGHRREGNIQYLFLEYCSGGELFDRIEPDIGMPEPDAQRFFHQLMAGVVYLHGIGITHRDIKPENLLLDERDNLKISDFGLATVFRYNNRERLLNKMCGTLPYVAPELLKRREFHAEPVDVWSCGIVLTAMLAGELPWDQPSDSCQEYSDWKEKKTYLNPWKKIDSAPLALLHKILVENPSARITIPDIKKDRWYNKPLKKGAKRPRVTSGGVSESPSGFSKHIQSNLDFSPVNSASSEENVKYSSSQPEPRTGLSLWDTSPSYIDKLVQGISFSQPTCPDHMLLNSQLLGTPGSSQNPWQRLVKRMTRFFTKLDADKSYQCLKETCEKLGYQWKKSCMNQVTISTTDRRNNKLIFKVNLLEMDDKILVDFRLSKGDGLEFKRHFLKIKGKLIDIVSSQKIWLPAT

[17] = molecular target: Mitogen-activated protein kinase kinase kinase kinase 5 (Homo sapiens) (UniProt Q9Y4K4); assay: Inhibition of MAP4K5 (unknown origin) assessed as residual activity at 500 nM relative to control
Mitogen-activated protein kinase kinase kinase kinase 5 (Homo sapiens), sequence (Q9Y4K4 whole entry, looked up, the tested form may be a part): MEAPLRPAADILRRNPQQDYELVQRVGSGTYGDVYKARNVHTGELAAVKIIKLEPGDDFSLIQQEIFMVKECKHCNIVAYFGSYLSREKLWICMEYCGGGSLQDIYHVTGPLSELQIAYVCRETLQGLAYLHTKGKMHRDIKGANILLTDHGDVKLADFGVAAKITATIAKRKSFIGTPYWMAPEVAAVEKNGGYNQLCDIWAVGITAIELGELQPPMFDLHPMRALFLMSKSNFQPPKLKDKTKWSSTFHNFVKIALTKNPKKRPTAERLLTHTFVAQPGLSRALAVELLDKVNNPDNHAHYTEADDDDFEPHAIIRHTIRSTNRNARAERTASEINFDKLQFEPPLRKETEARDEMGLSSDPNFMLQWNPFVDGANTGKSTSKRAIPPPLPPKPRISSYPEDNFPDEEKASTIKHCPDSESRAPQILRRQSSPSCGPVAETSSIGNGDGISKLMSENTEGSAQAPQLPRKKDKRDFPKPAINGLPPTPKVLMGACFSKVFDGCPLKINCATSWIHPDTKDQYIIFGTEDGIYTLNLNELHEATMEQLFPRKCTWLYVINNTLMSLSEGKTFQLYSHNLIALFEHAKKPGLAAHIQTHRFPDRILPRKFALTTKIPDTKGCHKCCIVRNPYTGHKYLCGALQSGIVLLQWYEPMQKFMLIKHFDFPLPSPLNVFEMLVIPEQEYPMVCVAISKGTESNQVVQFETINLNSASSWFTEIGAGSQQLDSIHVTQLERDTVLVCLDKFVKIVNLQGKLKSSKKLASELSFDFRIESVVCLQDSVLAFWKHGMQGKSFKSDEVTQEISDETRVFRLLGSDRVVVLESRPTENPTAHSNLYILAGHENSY

[18] = tested on: Ribosomal protein S6 kinase beta-1 (Homo sapiens), P23443 [T412E]; assay: Inhibition of human S6K1 T412E mutant (1 to 421 residues) assessed as residual activity at 500 nM in presence of 33P-ATP by filter binding assay relative to control
[19] = tested on: Serine/threonine-protein kinase PAK 2 (Homo sapiens), Q13177 [T402E]; assay: Inhibition of human PAK2 T402E mutant (1 to 524 residues) assessed as residual activity at 500 nM in presence of 33P-ATP by filter binding assay relative to control
[20] = tested on: Cryptosporidium parvum; assay: Selectivity ratio of IC50 for Cryptosporidium parvum CDPK1 to IC50 for recombinant Cryptosporidium parvum FIKK
[21] = molecular target: Myosin light chain kinase, smooth muscle (Homo sapiens) (UniProt Q15746); assay: Inhibition of human smMLCK (475 to 838 residues) assessed as residual activity at 500 nM in presence of 33P-ATP by filter binding assay relative to control
[22] = molecular target: Serine/threonine-protein kinase Nek6 (Homo sapiens) (UniProt Q9HC98); assay: Inhibition of human NEK6 (8 to 313 residues) assessed as residual activity at 500 nM in presence of 33P-ATP by filter binding assay relative to control
[23] = molecular target: MAP kinase-activated protein kinase 2 (Homo sapiens) (UniProt P49137); assay: Inhibition of human MAPKAPK2 (46 to 400 residues) assessed as residual activity at 500 nM in presence of 33P-ATP by filter binding assay relative to control
[24] = molecular target: Serine/threonine-protein kinase PAK 5 (Homo sapiens) (UniProt Q9P286); assay: Inhibition of human PAK5 (2 to 719 residues) assessed as residual activity at 500 nM in presence of 33P-ATP by filter binding assay relative to control
[25] = molecular target: TAK1/TAB1 (Homo sapiens) (UniProt Q15750+O43318); assay: Inhibition of human TAK1 (1 to 303 residues)/TAB1 (437 to 504 residues) assessed as residual activity at 500 nM in presence of 33P-ATP by filter binding assay relative to control; format: protein-complex assay
[26] = molecular target: Eukaryotic translation initiation factor 2-alpha kinase 3 (Homo sapiens) (UniProt Q9NZJ5); assay: Inhibition of human EIF2AK3 (536 to 1116 residues) assessed as residual activity at 500 nM in presence of 33P-ATP by filter binding assay relative to control
[27] = molecular target: Glycogen synthase kinase-3 beta (Homo sapiens) (UniProt P49841); assay: Inhibition of human GSK3beta (2 to 420 residues) assessed as residual activity at 500 nM in presence of 33P-ATP by filter binding assay relative to control
Glycogen synthase kinase-3 beta (Homo sapiens), sequence (P49841 whole entry, looked up, the tested form may be a part): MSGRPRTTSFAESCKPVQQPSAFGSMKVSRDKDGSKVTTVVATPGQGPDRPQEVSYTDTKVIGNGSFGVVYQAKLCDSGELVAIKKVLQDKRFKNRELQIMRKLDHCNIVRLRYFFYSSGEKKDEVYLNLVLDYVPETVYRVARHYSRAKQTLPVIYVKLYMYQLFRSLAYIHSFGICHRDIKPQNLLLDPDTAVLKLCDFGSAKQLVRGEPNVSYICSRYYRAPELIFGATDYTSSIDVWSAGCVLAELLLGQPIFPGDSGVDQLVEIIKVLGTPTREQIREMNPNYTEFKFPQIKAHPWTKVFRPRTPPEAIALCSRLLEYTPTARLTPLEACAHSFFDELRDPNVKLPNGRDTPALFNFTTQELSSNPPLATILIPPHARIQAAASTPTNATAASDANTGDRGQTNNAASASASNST

Cc1cccc(-c2nc(N)sc2-c2ccc3ncccc3n2)c1
Activity [1]: 110%
Activity [2]: 74%
Activity [3]: 127%
Activity [4]: 119%
Activity [5]: 132%
Activity [6]: 123%
Activity [7]: 101%
Activity [8]: 85%
Activity [9]: 112%
Activity [10]: 117%
Papp [11]: 11 ×10⁻⁶ cm/s
Activity [12]: 112%
Activity [13]: 103%
Activity [14]: 101%
Activity [15]: 113%
Activity [16]: 109%
Activity [17]: 148%
Activity [18]: 136%
Activity [19]: 103%
Ratio IC50 [20]: 940
Activity [21]: 104%
Activity [22]: 108%
Activity [23]: 108%
Activity [24]: 107%
Activity [25]: 40%
Activity [26]: 112%
Activity [27]: 112%

Source: ChEMBL document CHEMBL4177526, “Discovery and structure activity relationship of the first potent cryptosporidium FIKK kinase inhibitor” (Bioorg Med Chem, 2017)
